These results are taken from US8445674B2, “Heterocyclyl compounds” (Hoffmann-La Roche Inc, priority 2009, dated 2013).

The target in this test is T1, human chemokine receptor 2 isoform B (Homo sapiens, UniProt P41597).
T1 construct: host or cells: CHOK1-CCR2B-A5 cells (CHO-K1)
T1 sequence (P41597 1-360 isoform P41597-2): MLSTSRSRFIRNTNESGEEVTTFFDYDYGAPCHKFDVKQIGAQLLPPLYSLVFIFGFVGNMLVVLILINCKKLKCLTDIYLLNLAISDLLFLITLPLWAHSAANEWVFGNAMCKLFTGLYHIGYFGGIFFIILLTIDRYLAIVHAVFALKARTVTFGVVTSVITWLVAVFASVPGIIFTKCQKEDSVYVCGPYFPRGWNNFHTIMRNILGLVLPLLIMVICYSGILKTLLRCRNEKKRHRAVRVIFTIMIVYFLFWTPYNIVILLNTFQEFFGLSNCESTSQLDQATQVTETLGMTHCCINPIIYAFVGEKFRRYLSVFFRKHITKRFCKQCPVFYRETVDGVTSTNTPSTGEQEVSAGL
Briefly: Calcium mobilization assay (FLIPR, antagonist activity against MCP-1). The settings on record: Ca mobilisation assay, CHOK1-CCR2B-A5 cells, inhibition of calcium increase induced by 20 nM MCP-1. The test is classed as cell-based. The essentials:
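CHOK1 cells stably overexpressing human CCR2B, loaded with 4 μM Fluo-4 for 2 h at 30° C, compounds added and agonist signal read by FLIPR for 80 s. After 20-30 min at 30° C, 20 nM MCP-1 was added and fluorescence read again. IC50 is 50% inhibition of specific calcium increase (max minus basal).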

A word on the IC50: it is the concentration needed to halve the response being measured.

With `CC1(CO)CCN(C(=O)CCN2CCN(C(=O)/C=C/c3ccc(Cl)c(Cl)c3)CCC2=O)CC1` [Example 87, 1-[(E)-3-(3,4-Dichloro-phenyl)-acryloyl]-4-[3-(4-hydroxymethyl-4-methyl-piperidin-1-yl)-3-oxo-propyl]-[1,4]diazepan-5-one], the IC50 was determined as 337 nM.
As for `COC(=O)NC1CCN(C(=O)CCN2CCN(C(=O)/C=C/c3ccc(Cl)c(Cl)c3)CCC2=O)CC1` [Example 88, [1-(3-{4-[(E)-3-(3,4-Dichloro-phenyl)-acryloyl]-7-oxo-[1,4]diazepan-1-yl}-propionyl)-piperidin-4-yl]-carbamic acid methyl ester], the figure is 1750 nM; as for `O=C1NC(=O)C2(CCN(C(=O)CCN3CCN(C(=O)/C=C/c4ccc(Cl)c(Cl)c4)CCC3=O)CC2)N1` [Example 89, 8-(3-{4-[(E)-3-(3,4-Dichloro-phenyl)-acryloyl]-7-oxo-[1,4]diazepan-1-yl}-propionyl)-1,3,8-triaza-spiro[4.5]decane-2,4-dione], 4000 nM; as for `O=C1NCC2(CCN(C(=O)CCN3CCN(C(=O)/C=C/c4ccc(Cl)c(Cl)c4)CCC3=O)CC2)O1` [Example 90, 8-(3-{4-[(E)-3-(3,4-Dichloro-phenyl)-acryloyl]-7-oxo-[1,4]diazepan-1-yl}-propionyl)-1-oxa-3,8-diaza-spiro[4.5]decan-2-one], 184 nM.
As for `O=C(/C=C/c1ccc(Cl)c(Cl)c1)N1CCC(=O)N(CCC(=O)N2CCC(c3cc[nH]n3)CC2)CC1` [Example 91, 1-[(E)-3-(3,4-Dichloro-phenyl)-acryloyl]-4-{3-oxo-3-[4-(1H-pyrazol-3-yl)-piperidin-1-yl]-propyl}-[1,4]diazepan-5-one], the IC50 amounted to 146 nM.
As for `O=C(/C=C/c1ccc(Cl)c(Cl)c1)N1CCC(=O)N(CCC(=O)N2CCC(N3CCNC3=O)CC2)CC1` [Example 92, 1-[(E)-3-(3,4-Dichloro-phenyl)-acryloyl]-4-{3-oxo-3-[4-(2-oxo-imidazolidin-1-yl)-piperidin-1-yl]-propyl}-[1,4]diazepan-5-one], the figure is 952 nM; as for `O=C1CC2(CCN(C(=O)CCN3CCN(C(=O)/C=C/c4ccc(Cl)c(Cl)c4)CCC3=O)CC2)C(=O)N1` [Example 93, 8-(3-{4-[(E)-3-(3,4-Dichloro-phenyl)-acryloyl]-7-oxo-[1,4]diazepan-1-yl}-propionyl)-2,8-diaza-spiro[4.5]decane-1,3-dione], 1160 nM.
Consider `NC(=O)C1CCN(C(=O)CCN2CCN(C(=O)/C=C/c3ccc(Cl)c(Cl)c3)CCC2=O)CC1` [Example 94, 1-(3-{4-[(E)-3-(3,4-Dichloro-phenyl)-acryloyl]-7-oxo-[1,4]diazepan-1-yl}-propionyl)-piperidine-4-carboxylic acid amide], for which the IC50 was found to be 1800 nM.
For `O=C(/C=C/c1ccc(Cl)c(Cl)c1)N1CCC(=O)N(CC(=O)N2CCCCC2)CC1` [Example 95, 1-[(E)-3-(3,4-Dichloro-phenyl)-acryloyl]-4-(2-oxo-2-piperidin-1-yl-ethyl)-[1,4]diazepan-5-one], the IC50 came out at 150 nM.
As for `O=C(/C=C/c1ccc(Cl)c(Cl)c1)N1CCC(=O)N(CC(=O)N2CCC3(CCCC3)CC2)CC1` [Example 96, 4-[2-(8-Aza-spiro[4.5]dec-8-yl)-2-oxo-ethyl]-1-[(E)-3-(3,4-dichloro-phenyl)-acryloyl]-[1,4]diazepan-5-one], the figure is 3210 nM; as for `O=C(/C=C/c1ccc(Cl)c(Cl)c1)N1CCC(=O)N(CC(=O)N2CCC3(CCCO3)CC2)CC1` [Example 98, 1-[(E)-3-(3,4-Dichloro-phenyl)-acryloyl]-4-[2-(1-oxa-8-aza-spiro[4.5]dec-8-yl)-2-oxo-ethyl]-[1,4]diazepan-5-one], 1700 nM; as for `CC1(CO)CCN(C(=O)CN2CCN(C(=O)/C=C/c3ccc(Cl)c(Cl)c3)CCC2=O)CC1` [Example 99, 1-[(E)-3-(3,4-Dichloro-phenyl)-acryloyl]-4-[2-(4-hydroxymethyl-4-methyl-piperidin-1-yl)-2-oxo-ethyl]-[1,4]diazepan-5-one], 4960 nM.
As for `C[C@@H]1CN(CCC(=O)N2CCCCC2)C(=O)CCN1C(=O)/C=C/c1cccc(Cl)c1` [Example 101, (R)-1-[(E)-3-(3-Chloro-phenyl)-acryloyl]-2-methyl-4-(3-oxo-3-piperidin-1-yl-propyl)-[1,4]diazepan-5-one], the figure is 2480 nM.
As for `C[C@@H]1CN(CCC(=O)N2CCC(C)(O)CC2)C(=O)CCN1C(=O)/C=C/c1cccc(Cl)c1` [Example 102, (R)-1-[(E)-3-(3-Chloro-phenyl)-acryloyl]-4-[3-(4-hydroxy-4-methyl-piperidin-1-yl)-3-oxo-propyl]-2-methyl-[1,4]diazepan-5-one], the figure is 152 nM.
As for `C[C@H]1C[C@H](O)CN(C(=O)CCN2C[C@@H](C)N(C(=O)/C=C/c3cccc(Cl)c3)CCC2=O)C1` [Example 103, (R)-1-[(E)-3-(3-Chloro-phenyl)-acryloyl]-4-[3-((3S,5S)-3-hydroxy-5-methyl-piperidin-1-yl)-3-oxo-propyl]-2-methyl-[1,4]diazepan-5-one], the IC50 was found to be 1290 nM.
Take `C[C@@H]1CN(CCC(=O)N2CCC3(CC3)[C@H](O)C2)C(=O)CCN1C(=O)/C=C/c1cccc(Cl)c1` [Example 104, (R)-1-[(E)-3-(3-Chloro-phenyl)-acryloyl]-4-[3-((S)-4-hydroxy-6-aza-spiro[2.5]oct-6-yl)-3-oxo-propyl]-2-methyl-[1,4]diazepan-5-one]: the IC50 came to 100 nM.
As for `C[C@H]1C(=O)N(CCCC(=O)N2CCC(C)(O)CC2)CCN1C(=O)Nc1cccc(Cl)c1` [Example 105, (S)-4-[4-(4-Hydroxy-4-methyl-piperidin-1-yl)-4-oxo-butyl]-2-methyl-3-oxo-piperazine-1-carboxylic acid (3-chloro-phenyl)-amide], the figure is 3410 nM; as for `C[C@H]1C(=O)N(CCCC(=O)N2CCC(C(F)(F)F)CC2)CCN1C(=O)Nc1cccc(Cl)c1` [Example 106, (S)-2-Methyl-3-oxo-4-[4-oxo-4-(4-trifluoromethyl-piperidin-1-yl)-butyl]-piperazine-1-carboxylic acid (3-chloro-phenyl)-amide], 3130 nM.
For `C[C@H]1C(=O)N(CCCC(=O)N2CCC3(CC2)CNC(=O)O3)CCN1C(=O)Nc1cccc(Cl)c1` [Example 107, (S)-2-Methyl-3-oxo-4-[4-oxo-4-(2-oxo-1-oxa-3,8-diaza-spiro[4.5]dec-8-yl)-butyl]-piperazine-1-carboxylic acid (3-chloro-phenyl)-amide] the value was 4870 nM; for `C[C@H]1C(=O)N(CCCC(=O)N2CCC3(CCCO3)CC2)CCN1C(=O)Nc1cccc(Cl)c1` [Example 108, (S)-2-Methyl-4-[4-(1-oxa-8-aza-spiro[4.5]dec-8-yl)-4-oxo-butyl]-3-oxo-piperazine-1-carboxylic acid (3-chloro-phenyl)-amide], 4070 nM; for `C[C@H]1C(=O)N(CCCC(=O)N2CCC(CO)CC2)CCN1C(=O)Nc1cccc(Cl)c1` [Example 109, (S)-4-[4-(4-Hydroxymethyl-piperidin-1-yl)-4-oxo-butyl]-2-methyl-3-oxo-piperazine-1-carboxylic acid (3-chloro-phenyl)-amide], 4650 nM.
As for `C[C@H]1C(=O)N(CCCC(=O)N2CCS(=O)(=O)CC2)CCN1C(=O)Nc1cccc(Cl)c1` [Example 110, (S)-4-[4-(1,1-Dioxo-1 lambda*6*-thiomorpholin-4-yl)-4-oxo-butyl]-2-methyl-3-oxo-piperazine-1-carboxylic acid (3-chloro-phenyl)-amide], the figure is 1340 nM.
As to `C[C@H]1CCN(C(=O)CCCN2CCN(C(=O)Nc3cccc(Cl)c3)[C@@H](C)C2=O)C[C@H]1O` [Example 111, (S)-4-[4-((3S,4S)-3-Hydroxy-4-methyl-piperidin-1-yl)-4-oxo-butyl]-2-methyl-3-oxo-piperazine-1-carboxylic acid (3-chloro-phenyl)-amide], the IC50 turned out to be 893 nM.
Turning to `C[C@H]1C[C@H](O)CN(C(=O)CCCN2CCN(C(=O)Nc3cccc(Cl)c3)[C@@H](C)C2=O)C1` [Example 113, (S)-4-[4-((3S,5S)-3-Hydroxy-5-methyl-piperidin-1-yl)-4-oxo-butyl]-2-methyl-3-oxo-piperazine-1-carboxylic acid (3-chloro-phenyl)-amide], the IC50 is 1420 nM.
Consider `O=C1CCN(C(=O)Nc2cccc(Cl)c2)CCN1CCCC(=O)N1CCC2(CC2)[C@H](O)C1` [Example 116, 4-[4-((S)-4-Hydroxy-6-aza-spiro[2.5]oct-6-yl)-4-oxo-butyl]-5-oxo-[1,4]diazepane-1-carboxylic acid (3-chloro-phenyl)-amide], for which the IC50 was determined as 1290 nM.
As for `O=C1CCN(C(=O)Nc2ccc(Cl)c(Cl)c2)CCN1CCCC(=O)N1CCC2(CC2)[C@H](O)C1` [Example 117, 4-[4-((S)-4-Hydroxy-6-aza-spiro[2.5]oct-6-yl)-4-oxo-butyl]-5-oxo-[1,4]diazepane-1-carboxylic acid (3,4-dichloro-phenyl)-amide], the figure is 20.2 nM; as for `O=C1CCN(C(=O)Nc2ccc(Cl)c(C(F)(F)F)c2)CCN1CCCC(=O)N1CCC2(CC2)[C@H](O)C1` [Example 118, 4-[4-((S)-4-Hydroxy-6-aza-spiro[2.5]oct-6-yl)-4-oxo-butyl]-5-oxo-[1,4] diazepane-1-carboxylic acid (4-chloro-3-trifluoromethyl-phenyl)-amide], 51.7 nM.
